The source of these data is patent US11814402B2, “Binuclear palladacycles and their use in the treatment of cancer” (Stellenbosch University, priority 2019, dated 2023).

Data set [1] deals with human breast adenocarcinoma MDA-MB-231 (estrogen receptor negative) cells. The experiment in a line: Cytotoxicity (MTT) assay, MDA-MB-231. The class given is cell-based. The following applies: 48 hours treatment. The method, then:
(§1) These included cell viability tests using a MTT assay, and in some cases Western blots to test for DNA damage using γ-H2AX and PARP cleavage to determine whether or not apoptosis takes place.
The complex solutions were prepared by dissolution in DMSO to obtain 5 mM stock solutions. Solutions were stored at room temperature for no more than a week. […] After 48 hours, the cells were treated with various concentrations of complex (0-1 μM) or the vehicle for 48 hours. The 3-(4,5-dimethylthiazol-2-yl)-2,5-diphenyltetrazolium bromide (MTT) assay was then used, as described by the manufacturer's instructions: 10 μL of MTT solution was added to each well. Well plates were then incubated at 37° C. for 4 h. This was followed by addition of 100 μL solubilisation buffer (10% SDS in 0.01 M HCl) and incubation overnight at 37° C. Absorbance at 585 nm was then determined for each well and the mean cell viability was calculated as a percentage of the mean vehicle control. The experiments were performed in triplicate and the data were used to determine the half maximal inhibitory concentration values (IC50).

Another data set concerns ME1402 melanoma cells. The conditions noted are these: Biochem. Pharmacol. 2013, 86, 1650; read-out: IC50 proliferation ME1402 melanoma cells; cited from earlier work.
For a further data set, the system named is WM1158 melanoma cells. The following applies: Biochem. Pharmacol. 2013, 86, 1650; read-out: IC50 proliferation WM1158 melanoma cells; cited from earlier work.
In data set [2] the test system is human breast adenocarcinoma MCF-7 (estrogen receptor positive) cells. Kind of data set: Cytotoxicity (MTT) assay, MCF-7. The class given is cell-based. The conditions noted are these: 48 hours treatment. The method, then: as §1
The complex solutions were prepared by dissolution in DMSO to obtain 5 mM stock solutions. Solutions were stored at room temperature for no more than a week. […] The 3-(4,5-dimethylthiazol-2-yl)-2,5-diphenyltetrazolium bromide (MTT) assay was then used, as described by the manufacturer's instructions: 10 μL of MTT solution was added to each well. Well plates were then incubated at 37° C. for 4 h. This was followed by addition of 100 μL solubilisation buffer (10% SDS in 0.01 M HCl) and incubation overnight at 37° C. Absorbance at 585 nm was then determined for each well and the mean cell viability was calculated as a percentage of the mean vehicle control. The experiments were performed in triplicate and the data were used to determine the half maximal inhibitory concentration values (IC50).

Data set [3] in a line: Turbidimetric assay - solubility in 10% DMSO:PBS. The class given is physicochemical. The following applies: for aqueous solubility (in words): aqueous media. The method, then: A 0.01 M pH 7.4 Phosphate Buffered Saline (PBS) solution was prepared by dissolving one PBS tablet (Sigma-Aldrich) in 200 mL distilled water at 25° C. to yield a buffered solution containing 0.01 M phosphate buffer, 0.003 M KCl and 0.14 M NaCl. The solution equilibrated at 25° C. for one hour upon which the pH was confirmed.
A preparation plate (96-well flat bottomed) was prepared by serially diluting the compound to achieve the desired concentrations (5.0 μM to 200 μM). The test plate was prepared by pipetting […] into wells 7-12. Each compound was tested in triplicate thus a single plate could be used to evaluate two compounds. […] of each compound concentration was pipetted from the preparation plate into the test plate to bring the total volume up to 200 μL and to ensure that a 10% (v/v) DMSO/PBS solution is achieved. Test plates were prepared in duplicate and one plate was incubated at room temperature (25° C.) and the second at physiological temperature (37° C.). Both test plates were incubated for 2 hours upon which the UV-Vis absorbance readings were measured at 620 nm. The corrected absorbance readings were obtained by subtracting the blank readings from each concentration absorbance.

Data set [4] relates to oestrogen receptor negative MDA-MB-231 breast cancer cells. The following applies: prior report on AJ5; cited from earlier work.
In data set [5] the test system is oestrogen receptor positive MCF7 breast cancer cells. The conditions noted are these: prior report on AJ5; read-out: IC50 MCF-7; cited from earlier work.
Data set [6] is described as follows: Solubility in DMSO and DMSO/water (characterisation data). The following applies: for behaviour on addition of water / aqueous medium: test medium; for Solubility: DMSO: in DMSO.
The subject of data set [7] is MDA-MB 231 breast cancer cell line metastasis. Kind of data set: Metastasis reduction, MDA-MB 231 (chick embryo model). The data set is classed as in vivo. The method, then:
The ability of BTC2 to prevent metastasis was also evaluated.
(§2) Metastasis is the process of the spreading of the cancer from its site of origin to other parts of the body. This was evaluated using the same chick embryo model as mentioned above, and again compared to the known drug, paclitaxel.
When tested in the aggressive breast cancer cell line, MDA-MB 231, BTC2 was able to induce a 46% reduction in metastasis compared to 64% reduction for paclitaxel.

Data set [8] relates to MCF 7 breast cancer cell line tumour. The experiment in a line: In vivo anti-tumour activity, MCF 7 (chick embryo model). The protocol:
(§3) The activity of BTC2 was evaluated in two breast cancer cell lines (MCF 7 and MDA-MB-231). The latter is an aggressive, metastatic cell line in which metastasis is often difficult to prevent or control.
as §2

Data set [9] has as its system MDA-MB-231 breast cancer cell line tumour. Kind of data set: In vivo anti-tumour activity, MDA-MB-231 (chick embryo model). The conditions noted are these: MDA-MB-231, about half the concentration of paclitaxel. The protocol: as §3
Again, BTC2 was used at about half the concentration of the control, paclitaxel.
as §2

The next data set has as its system γ-H2AX in MCF7 cells. Kind of data set: Western blot, γ-H2AX (DNA damage). The following applies: treatment for 24 and 48 hours. The data set is classed as cell-based, human. The method, then: The complex solutions were prepared by dissolution in DMSO to obtain 0.1 and 0.2 μM stock solutions. Solutions were stored at room temperature for no more than a week. Human MCF7 breast adenocarcinoma cells in RPMI 1640 medium were plated in 6 cm petri dishes at 6×10^5 cells per plate. The cells were treated with the complex solutions for 24 or 48 hours. Cells were then lysed using whole cell lysis buffer (0.5 M tris-HCl, pH 6.8, 2% SDS, 10% glycerol, 1% β-mercaptoethanol and 0.02% bromophenol blue). Samples were boiled for 10 minutes. The proteins were resolved using SDS/PAGE (8-15% gels) as required. They were then transferred to Hybond ECL membranes which were then incubated with primary antibodies against PARP ½ (sc-7150), phospho-H2AX (#2577) and p38 (M000). Thereafter, the membranes were incubated with HRP-conjugated secondary antibodies (1:5000). The antibody-reactive proteins were visualised with a chemiluminescence reaction (ECL) detection system.
The most important proteins which are employed as markers for potential anti-cancer drugs are γ-H2AX, which, if present, is an indication of DNA damage and PARP, which if cleaved, is an indication that apoptosis has been induced. In order to allow for relative quantification of the proteins being detected, a loading control, P38, was used to ensure that loading discrepancies are not interpreted as drug-induced changes.
A general note: Immunoblotting shows a protein as a band on a membrane.

Where [10] appears, read: turbidimetric assay, 10% DMSO:PBS pH 7.4, 37° C., 2 hours incubation.

For orientation: solubility means the dissolved amount per volume that the medium holds. The low end stands for little dissolved substance, the high end for much dissolved substance.

As for `CC(C)c1cccc(C(C)C)c1[N+]1=Cc2cccc[c]2[Pd-2]1([Cl])[P+](CC[P+](c1ccccc1)(c1ccccc1)[Pd-2]1([Cl])[c]2ccccc2C=[N+]1c1c(C(C)C)cccc1C(C)C)(c1ccccc1)c1ccccc1` (centres unmarked) [AJ5], the IC50 in data set [1] is 190 ± 15 nM; in the data set with ME1402 melanoma cells, 190 nM; in the data set with WM1158 melanoma cells, 200 nM; in [2], 180 ± 48 nM; in data set [4], 193 nM; in [5] it was 175 nM. Also, the “aqueous solubility (in words)” value in [3] is listed as “poor solubility”. Further, the “Solubility in 10% DMSO:PBS at 37° C.” value in data set [3] (setting [10]) lay in the range of 5.98 to 11.97 µg/mL.
In the case of `CC(C)c1cccc(C(C)C)c1[N+]1=Cc2cccc[c]2[Pd-2]1([Cl])[P+](C[P+](c1ccccc1)(c1ccccc1)[Pd-2]1([Cl])[c]2ccccc2C=[N+]1c1c(C(C)C)cccc1C(C)C)(c1ccccc1)c1ccccc1` (centres unmarked) [BC1], the IC50 is 2200 ± 190 nM in data set [1] and 2700 ± 210 nM in data set [2]. Also, the “Solubility in 10% DMSO:PBS at 37° C.” value in data set [3] (setting [10]) was 10.21 to 20.41 µg/mL.
The like results for `CC(C)c1cccc(C(C)C)c1[N+]1=Cc2cccc[c]2[Pd-2]1([Cl])[P+](CCC[P+](c1ccccc1)(c1ccccc1)[Pd-2]1([Cl])[c]2ccccc2C=[N+]1c1c(C(C)C)cccc1C(C)C)(c1ccccc1)c1ccccc1` (centres unmarked) [BC3] were, in that order, 5000 ± 75 nM, 5800 ± 280 nM and 6.12 to 12.25 µg/mL.
As to `CC(C)c1cccc(C(C)C)c1[N+]1=Cc2cccc[c]2[Pd-2]1([Cl])[P+](c1ccccc1)(c1ccccc1)[c-]1cccc1.CC(C)c1cccc(C(C)C)c1[N+]1=Cc2cccc[c]2[Pd-2]1([Cl])[P+](c1ccccc1)(c1ccccc1)[c-]1cccc1.[Fe+2]` (centres unmarked) [BC4], in [1], the “IC50 MDA-MB-231” value was “Inactive”. For the same compound, in data set [6], the “behaviour on addition of water / aqueous medium” value is on record as “completely intolerant of water”. Also, in data set [2], the “IC50 MCF-7” value was “Inactive”. Besides, the “Solubility in 10% DMSO:PBS at 37° C.” value in [3] (setting [10]) was in the range of 13.65 to 27.30 µg/mL.
Consider `CC(C)c1cccc(C(C)C)c1[N+]1=Cc2ccc(OCCOCCO)c[c]2[Pd-2]1([Cl])[P+](c1ccccc1)(c1ccccc1)[c-]1cccc1.CC(C)c1cccc(C(C)C)c1[N+]1=Cc2ccc(OCCOCCO)c[c]2[Pd-2]1([Cl])[P+](c1ccccc1)(c1ccccc1)[c-]1cccc1.[Fe+2]` (centres unmarked) [BTC4, [(PdCl{4-[2-(2-hydroxyethoxy)ethoxy]}CH═N{2,6-^iPr2-C6H3})2(μ-Ph2P(C5H4)Fe(C5H4)PPh2]], for which, in [1], the “IC50 MDA-MB-231” value is reported as “Inactive”. In addition, in data set [6], the “Solubility: % DMSO in water” value was determined as 98 % DMSO in water, the “Solubility: DMSO” value is 53700 µg/mL and the “behaviour on addition of water / aqueous medium” value was “completely intolerant of water”. Further, the “IC50 MCF-7” value in data set [2] is listed as “Inactive”. The “aqueous solubility (in words)” value in [3] is given as “highly insoluble”.
On to `CC(C)c1cccc(C(C)C)c1[N+]1=Cc2ccc(OCCO)c[c]2[Pd-2]1([Cl])[P+](CC[P+](c1ccccc1)(c1ccccc1)[Pd-2]1([Cl])[c]2cc(OCCO)ccc2C=[N+]1c1c(C(C)C)cccc1C(C)C)(c1ccccc1)c1ccccc1` (centres unmarked) [BTC5, [(PdCl{4-(2-hydroxyethoxy})CH═N{2,6-^iPr2-C6H3})2(μ-Ph2P(CH2)2PPh2)]], for which the solubility at 2 h in [3] (10% DMSO:phosphate buffered saline, aqueous with cosolvent or surfactant or cyclodextrin, kinetic from dmso stock, turbidimetric assay, 10% DMSO:PBS pH 7.4, 37° C., 2 hours incubation) lay in the range of 13.3 to 26.6 µg/mL.
For `CC(=O)O[C@H]1C(=O)[C@@]2(C)[C@H]([C@H](OC(=O)c3ccccc3)[C@]3(O)C[C@H](OC(=O)[C@H](O)[C@@H](NC(=O)c4ccccc4)c4ccccc4)C(C)=C1C3(C)C)[C@]1(OC(C)=O)CO[C@@H]1C[C@@H]2O` [paclitaxel], the reduction in metastasis in data set [7] (MDA-MB 231, 50 μM) is given as 64%. This compound showed a tumour regression in data set [8] (MCF 7, concentration 50 μM) of 26%.
For “[(PdCl{4-[2-(2-hydroxyethoxy)ethoxy]}CH═N{2,6-^iPr2-C6H3})2(μ-Ph2P(CH2)2PPh2)] [BTC2]”, in data set [1], the IC50 came to 580 ± 12 nM. The compound further displayed a reduction in metastasis in data set [7] (MDA-MB 231, 24.4 μM) of 46%. In [8] (MCF 7, concentration 24.5 μM), the tumour regression is listed as 21%. In addition, in data set [6], the “Solubility: % DMSO in water” value was 76 % DMSO in water and the “Solubility: DMSO” value stood at 32600 µg/mL. In addition, the “tumour reduction (in words)” value in data set [9] is recorded as “able to induce tumour reduction”. Further, the IC50 in data set [2] came to 490 ± 20 nM. Moreover, the “γ-H2AX (Western blot)” value in the data set with γ-H2AX in MCF7 cells is reported as “significant amount of γ-H2AX”. In [3] (setting [10]), the “Solubility in 10% DMSO:PBS at 37° C.” value was 28.38 to 56.77 µg/mL.
For “[(PdCl{4-[2-(2-hydroxyethoxy)ethoxy]}CH═N{2,6-^iPr2-C6H3})2(μ-Ph2P(CH2)3PPh2)] [BTC3]”, the IC50 turned out to be 2300 ± 190 nM in data set [1] and 2500 ± 260 nM in data set [2].
